Test results from patent US9018395B2, “Pyrazolopyridine and pyrazolopyrimidine derivatives as melanocortin-4 receptor modulators” (Université de Montréal, priority 2011, dated 2015).

Target: T1, wild-type human melanocortin 4 receptor (WT-hMC4R) (Homo sapiens, UniProt P32245)
T1 construct: expressed in transfected cells; cDNA from UMR cDNA resource center
Test: Cyclic AMP assay (HTRF), antagonist competition against NDP-α-MSH
Type: cell-based
Conditions: HEK293T cells expressing double-tagged WT-hMC4R; cAMP accumulation; 1 hour compound then 4 nM NDP-α-MSH 30 min
Procedure: Intracellular cyclic 3′-5′ adenosine monophosphate (cAMP) accumulation was measured using a competitive immunoassay based on HTRF (Homogeneous Time-Resolved Fluorescence) technology (cAMP dynamic-2, Cis-Bio).
HEK293T stable cell line expressing double-tagged WT-hMC4R construct were collected and washed in cAMP buffer (1XD-PBS pH 7.4, 0.1% glucose). 40,000 cells/well were then dispensed in 96-well plates in cAMP buffer [1XD-PBS, 1% BSA, 0.1% Glucose, 0.75 mM 3-isobutyl-1methyl-xanthine (IBMX, Sigma)] and incubated either for antagonist competition assay: 1 hour at 37° C. with various concentrations of compound [0.01 nM-10 μM] followed by 30 min incubation at 37° C. with 4 nM of NDP-α-MSH (Sigma) or for agonist assay: 1 hour at 37° C. with various concentrations of compound [0.01 nM-10 μM]. 10,000 cells were transferred in 384-well plates, lysed and incubated with cAMP labeled with the dye d2 and anti-cAMP M-Antibody labeled with Cryptate following the manufacturer's protocol.
Reading of HTRF signal was performed on Artemis TR-FRET plate reader (Cosmo Bio).
All curve fitting was conducted using non-linear regression analyses from PRISM (version 4.0c, GraphPad Inc.) and the determination of Rmax and EC50 or IC50 parameters were obtained from sigmoidal dose-response phase (variable slope) equation.
A cDNA encoding a wild-type human MC4R with a 3 tandem copies of Hemaglutinine (HA) epitote sequence from UMR cDNA resource center was modified using known techniques in the art (e.g., PCR, cloning) to fused in frame at the C-terminal a venus-Yellow Fluorescent Protein (YFP) cDNA.
The resultant cDNA was then subcloned in eukaryotic expression vector, e.g. pcDNA 3.1(+) (Invitrogen).
The double tagged WT-hMC4R was transfected in HEK293T cells with lipofectamine (Invitrogen) following the manufacturer's instructions and permanently transfected clonal cell lines were selected by resistance to the neomycin analog G418.
HEK293T stable cell line expressing wild-type human melanocortin 4 receptor (WT-hMC4R) containing an N-terminal 3xHA epitope tag and an intracellular C-terminal venus-yellow fluorescent protein (v-YFP) were maintained at 37° C. in humidified air containing 5% CO2 in Dulbecoo's modified Eagle's medium (DMEM) supplemented with 10% fetal bovine serum (FBS), 100 U/ml penicillin/streptomycin (DMEM complete/10% FBS). Cells were generally at 70%-80% confluence on the day of assay.

T1 sequence (P32245 whole entry): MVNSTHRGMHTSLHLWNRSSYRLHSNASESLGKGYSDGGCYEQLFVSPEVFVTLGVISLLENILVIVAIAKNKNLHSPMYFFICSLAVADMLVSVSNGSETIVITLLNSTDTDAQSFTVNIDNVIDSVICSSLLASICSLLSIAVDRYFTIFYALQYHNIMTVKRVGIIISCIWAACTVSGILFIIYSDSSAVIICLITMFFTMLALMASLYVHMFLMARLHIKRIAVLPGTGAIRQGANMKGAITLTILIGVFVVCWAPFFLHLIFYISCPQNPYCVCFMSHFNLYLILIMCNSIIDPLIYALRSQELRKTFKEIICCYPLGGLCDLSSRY

| Structure (SMILES) | IC50 [nM] |
| --- | --- |
| COc1ccc(Cl)cc1-c1nn2ccc(C(=O)N(CCC(C)C)CCC(C)C)cc2c1-c1ccc(CN2CCCCC2)cc1 [Example 137] | 1000 to 5000 |
| COc1ccc(-c2nn3ccc(C(=O)N(CCC(C)C)CCC(C)C)cc3c2CCCN2CCCCCC2)cc1 [Example 111] | 1000 to 5000 |
| CC(C)CCN(CCC(C)C)C(=O)c1ccn2nc(-c3ccc(Br)cc3)c(/C=C/CN3CCCCC3)c2c1 [Example 41, (E)-2-(4-Bromophenyl)-N,N-diisopentyl-3-(3-(piperidin-1-yl)prop-1-en-1-yl)pyrazolo[1,5-a]pyridine-5-carboxamide] | 1000 to 5000 |
| CCCCN(CCCC)C(=O)c1ccn2nc(-c3ccc(C(C)(C)C)cc3)c(/C=C/CN3CCCCC3)c2c1 [Example 7] | 5000 to 15000 |
| CC(C)CCN(CCC(C)C)C(=O)c1ccn2nc(-c3ccc(C(C)(C)C)cc3)c(CCCN3CCCC3)c2c1 [Example 8] | 1000 to 5000 |
| CC(C)CCN(CCC(C)C)C(=O)c1ccn2nc(-c3cccc(C(C)O)c3)c(CCCN3CCCCC3)c2c1 (stereo not shown) [Example 32] | 500 to 1000 |
| CC(C)CCN(CCC(C)C)C(=O)c1ccn2nc(-c3ccc(-c4noc(C(F)(F)F)n4)cc3)c(CCCN3CCCCC3)c2c1 [Example 136] | 1000 to 5000 |
| CCN(CC)CCCc1c(-c2ccc(OC)cc2)nn2ccc(C(=O)N(CCC(C)C)CCC(C)C)nc12 [Example 105] | 5000 to 15000 |
| CNCCCc1c(-c2ccc(OC)cc2)nn2ccc(C(=O)N(CCC(C)C)CCC(C)C)cc12 [Example 157] | 5000 to 15000 |
| CC(=O)c1ccccc1-c1nn2ccc(C(=O)N(CCC(C)C)CCC(C)C)cc2c1/C=C/CN1CCCCC1 [Example 35] | 1000 to 5000 |
| COC(=O)c1ccc(-c2nn3ccc(C(=O)N(CCC(C)C)CCC(C)C)cc3c2/C=C/CN2CCCCC2)cc1 [Example 43, (E)-Methyl 4-(5-(diisopentylcarbamoyl)-3-(3-(piperidin-1-yl)prop-1-en-1-yl)pyrazolo[1,5-a]pyridin-2-yl)benzoate] | 500 to 1000 |
| CC(C)CCN(CCC(C)C)C(=O)c1ccn2nc(-c3ccccc3)c(/C=C/CN3CCCCC3)c2c1 [Example 58] | 500 to 1000 |
| CCCCN(CCCC)C(=O)c1ccn2nc(-c3cc(OC)c(OC)c(OC)c3)c(/C=C/CN3CCCCC3)c2c1 [Example 69] | 500 to 1000 |
| CC(C)CCN(CCC(C)C)C(=O)c1ccn2nc(-c3ccc(C(C)(C)C)cc3)c(/C=C/CN3CCCC3)c2c1 [Example 6] | 1000 to 5000 |
| COc1ccc(-c2nn3ccc(C(=O)N(CCC(C)C)CCC(C)C)nc3c2CCCN2CCCC2)cc1 [Example 104] | 5000 to 15000 |
| COc1ccc(Cl)cc1-c1nn2ccc(C(=O)N(CCC(C)C)CCC(C)C)cc2c1CCCN1CCCCC1 [Example 114] | 1000 to 5000 |
| CCCCN(CCCC)C(=O)c1ccn2nc(-c3ccccc3)c(/C=C/CN3CCCCC3)c2c1 [Example 57] | 1000 to 5000 |
| CCCCN(CCCC)C(=O)c1ccn2nc(-c3ccccc3)c(CCCN3CCCCC3)c2c1 [Example 54] | 500 to 1000 |
| CC(C)CCN(CCC(C)C)C(=O)c1ccn2nc(-c3cccc(C(=O)O)c3)c(CCCN3CCCCC3)c2c1 [Example 74] | 1000 to 5000 |
| COc1ccc(-c2nn3ccc(C(=O)N(CCC(C)C)CCC(C)C)cc3c2CCCN2[C@H](C)CCC[C@@H]2C)cc1 [Example 160] | 1000 to 5000 |
| CCCCCN(CCCCC)C(=O)c1ccn2nc(-c3cc(OC)c(OC)c(OC)c3)c(CCCN3CCCCC3)c2c1 [Example 68] | 500 to 1000 |
| CC(C)CCN(CCC(C)C)C(=O)c1ccn2nc(-c3ccc(-c4noc(=O)[nH]4)cc3)c(CCCN3CCCCC3)c2c1 [Example 103] | 500 to 1000 |
| COc1ccc(-c2nn3ccc(C(=O)N(CCC(C)C)CCC(C)C)cc3c2CCCN2CCC2)cc1 [Example 156] | 1000 to 5000 |
| CCCCN(CCCC)C(=O)c1ccn2nc(-c3cc(OC)cc(OC)c3)c(/C=C/CN3CCCCC3)c2c1 [Example 85] | 500 to 1000 |
| CC(C)CCN(CCC(C)C)C(=O)c1ccn2nc(-c3ccccc3Br)c(CCCN3CCCCC3)c2c1 [Example 38] | 1000 to 5000 |
| COc1ccc(-c2nn3ccc(C(=O)N(CCC(C)C)CCC(C)C)cc3c2/C=C/CN2CCCOCC2)cc1 [Example 159] | 500 to 1000 |
| CC(C)CCN(CCC(C)C)C(=O)c1ccn2nc(-c3cccc(Cl)c3)c(/C=C/CN3CCCCC3)c2c1 [Example 72, (E)-2-(3-chlorophenyl)-N,N-diisopentyl-3-(3-(piperidin-1-yl)prop-1-en-1-yl)pyrazolo[1,5-a]pyridine-5-carboxamide] | 500 to 1000 |

Now from value to compound:

| IC50 [nM] | Structure (SMILES) |
| --- | --- |
| < 500 | COc1cc(OC)cc(-c2nn3ccc(C(=O)N(CCC(C)C)CCC(C)C)cc3c2/C=C/CN2CCCCC2)c1 [Example 84] |
| < 500 | CC(C)CCN(CCC(C)C)C(=O)c1ccn2nc(-c3ccc(O)cc3)c(CCCN3CCCCC3)c2c1 [Example 78] |
| 500 to 1000 | COc1ccc(-c2nn3ccc(C(=O)N(CCC(C)C)CCC(C)C)cc3c2/C=C/CN2CCCCC2C)cc1 (stereo not shown) [Example 169] |
| < 500 | CC(C)CCN(CCC(C)C)C(=O)c1ccn2nc(-c3ccc(C#N)cc3)c(CCCN3CCCCC3)c2c1 [Example 96] |
| 500 to 1000 | CC(=O)c1ccc(-c2nn3ccc(C(=O)N(CCC(C)C)CCC(C)C)cc3c2/C=C/CN2CCCCC2)cc1 [Example 42, (E)-2-(4-Acetylphenyl)-N,N-diisopentyl-3-(3-(piperidin-1-yl)prop-1-en-1-yl)pyrazolo[1,5-a]pyridine-5-carboxamide] |
| < 500 | COc1cc(OC)cc(-c2nn3ccc(C(=O)N(CCC(C)C)CCC(C)C)cc3c2CCCN2CCCCC2)c1 [Example 86] |
| < 500 | CC(C)CCN(CCC(C)C)C(=O)c1ccn2nc(-c3ccc(-c4noc(-c5ccncc5)n4)cc3)c(CCCN3CCCCC3)c2c1 [Example 139] |
| 500 to 1000 | CCCCN(CCCC)C(=O)c1ccn2nc(-c3ccc(F)cc3)c(CCCN3CCCCC3)c2c1 [Example 48] |
| < 500 | CC(C)CCN(CCC(C)C)C(=O)c1ccn2nc(-c3cccc(Cl)c3)c(CCCN3CCCCC3)c2c1 [Example 83, 2-(3-Chlorophenyl)-N,N-diisopentyl-3-(3-(piperidin-1-yl)propyl)pyrazolo[1,5-a]pyridine-5-carboxamide] |
| < 500 | COC(=O)c1cccc(-c2nn3ccc(C(=O)N(CCC(C)C)CCC(C)C)cc3c2CCCN2CCCCC2)c1 [Example 31] |
| < 500 | CC(C)CCN(CCC(C)C)C(=O)c1ccn2nc(-c3ccc(Br)cc3)c(CCCN3CCCCC3)c2c1 [Example 45] |
| < 500 | CC(C)CCN(CCC(C)C)C(=O)c1ccn2nc(-c3ccc(/C(N)=N/O)cc3)c(CCCN3CCCCC3)c2c1 [Example 102] |
| < 500 | CC(=O)O/N=C(\N)c1ccc(-c2nn3ccc(C(=O)N(CCC(C)C)CCC(C)C)cc3c2CCCN2CCCCC2)cc1 [Example 107] |
| < 500 | COc1ccc(-c2nn3ccc(C(=O)N(CCC(C)C)CCC(C)C)cc3c2CCCN2CCOCC2)cc1 [Example 124] |
| < 500 | COc1ccc(Nc2nn3ccc(C(=O)N(CCC(C)C)CCC(C)C)cc3c2/C=C/CN2CCCCC2)cc1 [Example 138, (E)-N,N-diisopentyl-2-((4-methoxphenyl)amino)-3-(3-(piperidin-1-yl)prop-1-en-1-yl)pyrazolo[1,5-a]pyridine-5-carboxamide] |
| < 500 | COc1ccc(Nc2nn3ccc(C(=O)N(CCC(C)C)CCC(C)C)cc3c2CCCN2CCCCC2)cc1 [Example 142, N,N-diisopentyl-2-((4-methoxyphenyl)amino)-3-(3-(piperidin-1-yl)propyl)pyrazolo[1,5-a]pyridine-5-carboxamide] |
